Measured values: paper PMC6273431, “The Structure–Antimicrobial Activity Relationships of a Promising Class of the Compounds Containing the N-Arylpiperazine Scaffold” (Molecules, 2016)
Read-outs that look alike come from different tables or passages of the source.

What was measured:
[1] = system: methicillin-resistant Staphylococcus aureus 63718; assay: antibacterial MIC, microtitration broth method; type: cell-based; settings: MRSA, 37 °C
Experimental: (§1) Prior to the testing, each strain was transferred into a nutrient agar (Oxoid Limited, Basingstoke, UK), which was enriched with 5% defibrinated bovine blood.
(§2) The MICs were determined by the microtitration broth method in the cation-adjusted Mueller-Hinton broth (Becton Dickinson, Oxford, UK) according to an international interdisciplinary Clinical Laboratory Standard Institute guidelines.
(§3) The checkerboard was inoculated by the bacterial inocula, which were prepared in a phosphate buffered saline solution with the pH = 7.2–7.3 to simulate physiological pH. The final concentration of each inoculum in the final volume of 100 μL in the wells was approximately 7.5 × 10^6 CFU/mL. Drug-free controls, sterility controls and the controls consisted of the broth with DMSO were included. The determination of the results was performed visually after 24 h of static incubation in the darkness at 37 °C in an aerobic atmosphere.
(§4) To ensure reproducibility, each antibacterial MIC assay was performed triplicate on separate occasions.

[2] = system: Staphylococcus aureus ATCC 29213; assay: antibacterial MIC, microtitration broth method; type: cell-based; settings: 37 °C
Experimental: as §1, §2, §3, §4

[3] = system: Enterococcus faecalis ATCC 29212; assay: antibacterial MIC, microtitration broth method; type: cell-based; settings: 37 °C
Experimental: as §1, §2, §3, §4

[4] = system: Escherichia coli ATCC 25922; assay: antibacterial MIC, microtitration broth method; type: cell-based; settings: 37 °C
Experimental: as §1, §2, §3, §4

[5] = system: Candida albicans CCM 8261; assay: candidacidal MIC, microdilution method; type: cell-based; settings: 48 h, 37 °C
Experimental: (§5) In order to provide a look into the potential usefulness of the derivatives 5a–l as the candidates for a development of anti-yeast (candidacidal) agents, they were in vitro tested against Candida albicans CCM 8261 (CA 8261), C. krusei CCM 8271 (CK 8271) and C. parapsilosis CCM 8260 (CP 8260). The yeasts were obtained from the Czech Collection of Microorganisms (Masaryk University, Faculty of Science, Brno, Czech Republic). They were grown and kept on Sabouraud agar (Oxoid Limited, Basingstoke, UK).
(§6) For the screening, the microdilution method according to the Antimicrobial Susceptibility Testing Protocols was applied. The inoculum was prepared from the cultures grown on Sabouraud agar. With the sterile solution of NaCl, the inoculum was prepared to the 0.5 McFarland units using the Densi-La-Meter densitometer (LIAP, Riga, Latvia) and diluted a thousand‑fold with the Roswell Park Memorial Institute (RPMI) 1640 medium (Sigma-Aldrich, Darmstadt, Germany). Prepared suspension was used for an inoculation of microtitre plates. Final concentration in wells ranged from 5.0 × 10^2 CFU/mL to 2.5 × 10^3 CFU/mL. […] For the determination of the MICs, the stock solutions of all the tested compounds were diluted in the microtitre checkerboard to the final concentration varying from 128 μg/mL to 0.125 μg/mL. Drug-free control, sterility control and the control consisted of a medium and DMSO alone were included. Inoculated microtitre plates were incubated for 48 h in the darkness at 37 °C in an aerobic atmosphere. The results were estimated against static light.
(§7) The MIC was defined as the lowest concentration of the tested compound at which no visible growth was observed. To ensure reproducibility of the results, each candidacidal MIC assay was performed triplicate on separate occasions. It was important to note that all the MICs from the in vitro antimicrobial screening were expressed in μg/mL units and were available in Tables S3 and S4 (Supplementary Materials).

[6] = system: Candida parapsilosis CCM 8260; assay: candidacidal MIC, microdilution method; type: cell-based; settings: 48 h, 37 °C
Experimental: as §5, §6, §7

Candida krusei CCM 8271 = assay: candidacidal MIC, microdilution method; type: cell-based; settings: 48 h, 37 °C
Experimental: as §5, §6, §7

[7] = set-up: method as in PMID 16209439, PMID 16209439; settings: potentiometric titration; cited from earlier work
[8] = system: Mycobacterium avium subsp. paratuberculosis CIT03; assay: antimycobacterial MIC, MB broth, alamarBlue; type: cell-based; settings: 264 h, read-out: MIC MAP
Experimental: The Mycobacterium avium subsp. paratuberculosis CIT03 strain was grown in the Middlebrook (MB) broth, supplemented with the Oleic-Albumin-Dextrose-Catalase Supplement (OADC, Becton Dickinson, Oxford, UK) and the mycobactin J (2 μg/mL). The commercially available siderophore mycobactin J reduced the incubation period of M. avium subsp. paratuberculosis in a complex medium when compared to the medium containing the mycobactin P as a growth factor.
The identification of the isolate was performed using biochemical and molecular protocols. At a log phase growth, a culture sample (10 mL) was centrifuged at 15,000 rpm/20 min using a bench top centrifuge (Model CR 4-12, Jouan Inc., London, UK). Following removal of the supernatant, the pellet was washed in fresh Middlebrook 7H9GC broth and re-suspended in fresh supplemented MB broth (10 mL). The turbidity was adjusted to match the McFarland standard No. 1 containing approximately 3.0 × 10^8 Colony Forming Units (CFU) with the MB broth. Further 1:20 dilution of the culture was performed in the MB broth. The susceptibility of given mycobacterial species was investigated in a 96-well plate format. In those experiments, sterile deionised water (300 μL) was added to all outer-perimeter wells of the plates to minimize an evaporation of the medium in the test wells during the incubation process. Each evaluated compound (100 μL) was incubated with the mycobacterial species (100 μL). The dilutions of a particular compound were prepared in triplicate. For all inspected derivatives, final concentrations ranged from 1000 μg/mL to 60 μg/mL. All compounds were prepared in dimethyl sulfoxide (DMSO; Sigma-Aldrich, Irvine, UK) and subsequent dilutions were made in the supplemented MB broth. The plates were sealed with a parafilm and incubated at 37 °C for 11 days. Following the incubation, a 10% addition of a water‑soluble dye, the alamarBlue reagent (AbD Serotec, Kidlington, UK), was mixed into each well. Absorbance readings at 570 nm and 600 nm were taken, initially for background subtraction and after 24 h re-incubation. The subtraction is necessary for strongly coloured compounds, where the colour may interfere with the interpretation of any colour change. For non-interfering compounds, a blue colour in a well was interpreted as an absence of a growth and a pink colour was scored as a growth.
The minimum inhibitory concentration (MIC) was defined as the lowest concentration of the compound at which no visible bacterial growth was observed. In other words, the MIC was the lowest concentration that prevented a visual colour change from blue to pink. The MIC value has been routinely and widely used in bacterial assays and it has been a standard detection limit according to the Clinical and Laboratory Standards Institute. The clinically used antimycobacterial drugs INH and RIF were applied as the standards.

M. smegmatis ATCC 700084 = assay: antimycobacterial MIC, broth dilution micromethod; type: cell-based; settings: Mycolicibacterium smegmatis, ATCC700084, 72 h, 3 days at 37 °C
M. marinum CAMP 5644 = assay: antimycobacterial MIC, broth dilution micromethod; type: cell-based; settings: Mycobacterium marinum, CAMP5644, 504 h, 21 days at 28 °C
[9] = set-up: method as in PMID 16209439, PMID 16209439, doi:10.2478/s11696-006-0007-y; settings: octan-1-ol/phosphate buffer (pH = 7.4); cited from earlier work
M. kansasii DSM 44162 = assay: antimycobacterial MIC, broth dilution micromethod; type: cell-based; settings: Mycobacterium kansasii, DSM44162, 168 h, 7 days at 37 °C
[10] = Lodderomyces parapsilosis, CCM8260
[11] = Candida albicans, CCM8261, Table S4
[12] = Lodderomyces parapsilosis, CCM8260, Table S4
[13] = Pichia kudriavzevii, CCM8271, Table S4

CC1(C)S[C@@H]2[C@H](NC(=O)[C@H](N)c3ccccc3)C(=O)N2[C@H]1C(=O)O [AMP, ampicillin, reference compound]
MIC ([1]; 24 h): > 45.8 µM | MIC ([1]; Table S4, 24 h): > 16 µg/mL | MIC ([2]; ATCC29213, 24 h): 5.72 µM | MIC ([2]; ATCC29213, Table S4, 24 h): 2 µg/mL | MIC ([3]; ATCC29212, 24 h): > 45.8 µM | MIC ([3]; ATCC29212, Table S4, 24 h): > 16 µg/mL | MIC ([4]; ATCC25922, 24 h): > 45.8 µM | MIC ([4]; ATCC25922, Table S4, 24 h): > 16 µg/mL

C[C@@H]1[C@H](O)[C@@H](C)/C=C/C=C/C=C/C=C/C=C/C=C/C=C/[C@H](O[C@@H]2O[C@H](C)[C@@H](O)[C@H](N)[C@@H]2O)C[C@@H]2O[C@](O)(C[C@@H](O)C[C@@H](O)[C@H](O)CC[C@@H](O)C[C@@H](O)CC(=O)O[C@H]1C)C[C@H](O)[C@H]2C(=O)O [Amph. B, amphotericin B, reference compound]
MIC ([5]; Candida albicans, CCM8261): 0.54 µM | MIC [6, 10]: 1.08 µM | MIC (Candida krusei CCM 8271; Pichia kudriavzevii, CCM8271): 0.54 µM

Nc1nc(=O)[nH]cc1F [Compound 5-FC, 5-flucytosine, reference compound]
MIC [5]: 7.69 µM | MIC CA ([5]; Table S4): 1 µg/mL | MIC [6]: 61.50 µM | MIC CP ([6]; Table S4): 8 µg/mL | MIC (Candida krusei CCM 8271): 0.96 µM | MIC CK (Candida krusei CCM 8271; Table S4): 0.125 µg/mL

COc1ccccc1NC(=O)OCC(O)CN1CCN(c2cccc(C(F)(F)F)c2)CC1 (stereo not shown) [Compound 5a]
pKa [7]: 5.83 | MIC ([8]; 37 °C, 11 days): 510 µM | MIC [8]: 250 µg/mL | MIC (M. smegmatis ATCC 700084): 523 µM | MIC (M. smegmatis ATCC 700084; Table S3): 256 µg/mL | MIC (M. marinum CAMP 5644): 131 µM | MIC (M. marinum CAMP 5644; Table S3): 64 µg/mL | MIC ([1]; 24 h): > 523 µM | MIC ([1]; Table S4, 24 h): > 256 µg/mL | MIC ([2]; ATCC29213, 24 h): > 523 µM | MIC ([2]; ATCC29213, Table S4, 24 h): > 256 µg/mL | MIC ([3]; ATCC29212, 24 h): > 523 µM | MIC ([3]; ATCC29212, Table S4, 24 h): > 256 µg/mL | MIC ([4]; ATCC25922, 24 h): > 523 µM | MIC ([4]; ATCC25922, Table S4, 24 h): > 256 µg/mL | log Pexp [9]: 3.57 | MIC (M. kansasii DSM 44162): 131 µM | MIC (M. kansasii DSM 44162; Table S3): 64 µg/mL | MIC ([5]; Candida albicans, CCM8261): > 261 µM | MIC [5, 11]: > 128 µg/mL | MIC [6, 10]: > 261 µM | MIC [6, 12]: > 128 µg/mL | MIC (Candida krusei CCM 8271; Pichia kudriavzevii, CCM8271): > 261 µM | MIC (Candida krusei CCM 8271; [13]): > 128 µg/mL

CCOc1ccccc1NC(=O)OCC(O)CN1CCN(c2cccc(C(F)(F)F)c2)CC1 (stereo not shown) [Compound 5b]
pKa [7]: 6.00 | MIC ([8]; 37 °C, 11 days): 1980 µM | MIC [8]: 1000 µg/mL | MIC (M. smegmatis ATCC 700084): 508 µM | MIC (M. smegmatis ATCC 700084; Table S3): 256 µg/mL | MIC (M. marinum CAMP 5644): 127 µM | MIC (M. marinum CAMP 5644; Table S3): 64 µg/mL | MIC ([1]; 24 h): > 508 µM | MIC ([1]; Table S4, 24 h): > 256 µg/mL | MIC ([2]; ATCC29213, 24 h): > 508 µM | MIC ([2]; ATCC29213, Table S4, 24 h): > 256 µg/mL | MIC ([3]; ATCC29212, 24 h): > 508 µM | MIC ([3]; ATCC29212, Table S4, 24 h): > 256 µg/mL | MIC ([4]; ATCC25922, 24 h): > 508 µM | MIC ([4]; ATCC25922, Table S4, 24 h): > 256 µg/mL | log Pexp [9]: 3.60 | MIC (M. kansasii DSM 44162): 127 µM | MIC (M. kansasii DSM 44162; Table S3): 64 µg/mL | MIC ([5]; Candida albicans, CCM8261): > 254 µM | MIC [5, 11]: > 128 µg/mL | MIC [6, 10]: > 254 µM | MIC [6, 12]: > 128 µg/mL | MIC (Candida krusei CCM 8271; Pichia kudriavzevii, CCM8271): > 254 µM | MIC (Candida krusei CCM 8271; [13]): > 128 µg/mL

NNC(=O)c1ccncc1 [INH, isoniazid, reference compound]
MIC ([8]; 37 °C, 11 days): 1820 µM | MIC [8]: 250 µg/mL | MIC (M. smegmatis ATCC 700084): 117 µM | MIC (M. smegmatis ATCC 700084; Table S3): 16.1 µg/mL | MIC (M. marinum CAMP 5644): 467 µM | MIC (M. marinum CAMP 5644; Table S3): 64 µg/mL

CO[C@H]1/C=C/O[C@@]2(C)Oc3c(C)c(O)c4c(O)c(c(/C=N/N5CCN(C)CC5)c(O)c4c3C2=O)NC(=O)/C(C)=C\C=C\[C@H](C)[C@H](O)[C@@H](C)[C@@H](O)[C@@H](C)[C@H](OC(C)=O)[C@@H]1C [RIF, rifampicin, reference compound]
MIC ([8]; 37 °C, 11 days): 109 µM | MIC [8]: 60 µg/mL | MIC (M. smegmatis ATCC 700084): 19.4 µM | MIC (M. smegmatis ATCC 700084; Table S3): 0.125 µg/mL | MIC (M. marinum CAMP 5644): 2.43 µM | MIC (M. marinum CAMP 5644; Table S3): 0.25 µg/mL | MIC (M. kansasii DSM 44162): 0.15 µM | MIC (M. kansasii DSM 44162; Table S3): 0.5 µg/mL
